Assays:
Test in all cases: Enzyme binding assay (KINOMEscan)
Conditions in all cases: DiscoveRx, pKd = -log Kd (M)
FGFR4 = FGFR4 (Homo sapiens (Human), UniProt P22455)
Experimental: (§1) Enzyme Binding Assays (KINOMEscan®)
(§2) Kinase enzyme binding affinities of compounds disclosed herein were determined using the KINOMEscan® technology performed by DiscoveRx Corporation, San Diego, Calif., USA (www.kinomescan.com). Table A2 reports the obtained pKd values, with Kd (M) being the inhibitor binding constant value and with pKd being −log Kd: […]

VEGFR2 = VEGFR2 (Homo sapiens (Human), UniProt P35968)
Experimental: as §1, §2

FGFR2 = FGFR2 (Homo sapiens (Human), UniProt P21802)
Experimental: as §1, §2

FGFR3 = FGFR3 (Homo sapiens (Human), UniProt P22607)
Experimental: as §1, §2

FGFR1 = FGFR1 (Homo sapiens (Human), UniProt P11362)
Experimental: as §1, §2

Sequence of FGFR3 (P22607 23-806): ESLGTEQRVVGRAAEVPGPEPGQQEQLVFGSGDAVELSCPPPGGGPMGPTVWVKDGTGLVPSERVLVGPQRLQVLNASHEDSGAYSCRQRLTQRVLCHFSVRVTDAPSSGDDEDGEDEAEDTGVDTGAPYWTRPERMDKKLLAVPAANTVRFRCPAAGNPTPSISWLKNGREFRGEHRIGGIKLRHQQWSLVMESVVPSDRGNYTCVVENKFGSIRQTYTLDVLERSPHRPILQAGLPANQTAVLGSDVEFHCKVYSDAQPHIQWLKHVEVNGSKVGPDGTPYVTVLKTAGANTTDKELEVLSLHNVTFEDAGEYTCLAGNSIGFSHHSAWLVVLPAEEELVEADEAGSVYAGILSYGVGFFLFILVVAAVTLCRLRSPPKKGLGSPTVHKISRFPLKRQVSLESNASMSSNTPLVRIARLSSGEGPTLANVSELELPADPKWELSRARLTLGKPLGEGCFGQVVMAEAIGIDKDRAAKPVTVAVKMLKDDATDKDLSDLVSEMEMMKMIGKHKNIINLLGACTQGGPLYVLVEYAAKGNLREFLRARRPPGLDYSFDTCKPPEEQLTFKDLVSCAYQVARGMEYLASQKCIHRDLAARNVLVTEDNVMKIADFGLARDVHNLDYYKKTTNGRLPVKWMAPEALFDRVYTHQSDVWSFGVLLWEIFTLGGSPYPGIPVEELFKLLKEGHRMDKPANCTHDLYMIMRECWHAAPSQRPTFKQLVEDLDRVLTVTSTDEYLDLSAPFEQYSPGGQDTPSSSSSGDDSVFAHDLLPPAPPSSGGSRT
Sequence of FGFR2 (P21802 22-821): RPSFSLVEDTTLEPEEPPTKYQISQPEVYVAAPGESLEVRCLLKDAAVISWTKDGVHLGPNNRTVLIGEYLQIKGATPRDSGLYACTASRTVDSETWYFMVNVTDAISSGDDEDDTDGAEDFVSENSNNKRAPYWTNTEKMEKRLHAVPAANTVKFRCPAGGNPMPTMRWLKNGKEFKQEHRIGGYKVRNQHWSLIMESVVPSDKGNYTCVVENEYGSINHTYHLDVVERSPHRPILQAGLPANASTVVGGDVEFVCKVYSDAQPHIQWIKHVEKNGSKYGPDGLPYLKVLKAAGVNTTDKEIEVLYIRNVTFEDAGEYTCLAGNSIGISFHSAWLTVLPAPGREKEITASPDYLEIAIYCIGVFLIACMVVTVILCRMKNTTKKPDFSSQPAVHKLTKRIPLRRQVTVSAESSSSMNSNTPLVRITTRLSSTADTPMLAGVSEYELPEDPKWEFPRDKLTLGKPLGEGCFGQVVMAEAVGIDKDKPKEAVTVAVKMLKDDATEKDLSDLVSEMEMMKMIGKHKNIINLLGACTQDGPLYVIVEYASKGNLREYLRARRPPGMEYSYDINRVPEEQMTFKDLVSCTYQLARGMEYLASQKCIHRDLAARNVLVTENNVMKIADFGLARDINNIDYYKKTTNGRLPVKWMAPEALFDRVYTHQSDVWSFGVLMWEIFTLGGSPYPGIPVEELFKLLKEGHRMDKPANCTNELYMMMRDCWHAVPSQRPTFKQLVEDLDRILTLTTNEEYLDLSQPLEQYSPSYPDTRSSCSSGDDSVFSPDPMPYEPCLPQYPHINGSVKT
Sequence of VEGFR2 (P35968 20-1356): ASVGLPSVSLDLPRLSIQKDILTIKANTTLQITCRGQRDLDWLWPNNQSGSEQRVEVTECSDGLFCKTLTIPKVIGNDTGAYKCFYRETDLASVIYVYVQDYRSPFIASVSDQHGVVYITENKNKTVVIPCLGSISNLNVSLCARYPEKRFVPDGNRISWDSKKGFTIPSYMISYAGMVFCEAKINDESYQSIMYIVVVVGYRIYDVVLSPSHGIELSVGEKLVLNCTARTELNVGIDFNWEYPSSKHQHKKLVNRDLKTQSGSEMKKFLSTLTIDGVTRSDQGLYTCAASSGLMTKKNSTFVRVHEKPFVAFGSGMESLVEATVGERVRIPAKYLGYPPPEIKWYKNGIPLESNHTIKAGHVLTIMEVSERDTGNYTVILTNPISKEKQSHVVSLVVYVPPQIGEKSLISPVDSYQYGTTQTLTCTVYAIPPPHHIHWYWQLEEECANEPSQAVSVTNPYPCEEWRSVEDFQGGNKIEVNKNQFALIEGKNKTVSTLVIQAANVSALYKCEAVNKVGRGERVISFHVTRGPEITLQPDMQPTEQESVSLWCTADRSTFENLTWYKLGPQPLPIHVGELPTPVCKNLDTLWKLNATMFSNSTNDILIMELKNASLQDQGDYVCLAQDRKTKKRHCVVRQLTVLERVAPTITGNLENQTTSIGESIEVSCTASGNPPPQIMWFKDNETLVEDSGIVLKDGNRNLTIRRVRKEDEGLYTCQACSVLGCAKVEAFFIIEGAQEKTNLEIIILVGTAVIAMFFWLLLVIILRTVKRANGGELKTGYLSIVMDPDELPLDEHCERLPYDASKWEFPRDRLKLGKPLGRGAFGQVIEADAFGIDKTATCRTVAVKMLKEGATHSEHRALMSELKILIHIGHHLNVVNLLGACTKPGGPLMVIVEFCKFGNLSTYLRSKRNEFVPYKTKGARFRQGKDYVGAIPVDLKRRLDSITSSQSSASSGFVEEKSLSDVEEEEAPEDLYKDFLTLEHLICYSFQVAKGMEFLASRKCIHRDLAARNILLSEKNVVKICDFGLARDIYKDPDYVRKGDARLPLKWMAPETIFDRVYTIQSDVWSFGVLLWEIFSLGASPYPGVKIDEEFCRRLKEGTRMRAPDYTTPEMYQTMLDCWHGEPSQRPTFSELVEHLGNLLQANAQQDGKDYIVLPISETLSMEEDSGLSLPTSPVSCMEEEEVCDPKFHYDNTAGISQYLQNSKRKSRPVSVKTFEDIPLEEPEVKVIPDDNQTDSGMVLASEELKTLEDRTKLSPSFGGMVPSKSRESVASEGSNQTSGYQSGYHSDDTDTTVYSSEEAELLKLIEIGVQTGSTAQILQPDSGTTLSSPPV
Sequence of FGFR1 (P11362 22-822): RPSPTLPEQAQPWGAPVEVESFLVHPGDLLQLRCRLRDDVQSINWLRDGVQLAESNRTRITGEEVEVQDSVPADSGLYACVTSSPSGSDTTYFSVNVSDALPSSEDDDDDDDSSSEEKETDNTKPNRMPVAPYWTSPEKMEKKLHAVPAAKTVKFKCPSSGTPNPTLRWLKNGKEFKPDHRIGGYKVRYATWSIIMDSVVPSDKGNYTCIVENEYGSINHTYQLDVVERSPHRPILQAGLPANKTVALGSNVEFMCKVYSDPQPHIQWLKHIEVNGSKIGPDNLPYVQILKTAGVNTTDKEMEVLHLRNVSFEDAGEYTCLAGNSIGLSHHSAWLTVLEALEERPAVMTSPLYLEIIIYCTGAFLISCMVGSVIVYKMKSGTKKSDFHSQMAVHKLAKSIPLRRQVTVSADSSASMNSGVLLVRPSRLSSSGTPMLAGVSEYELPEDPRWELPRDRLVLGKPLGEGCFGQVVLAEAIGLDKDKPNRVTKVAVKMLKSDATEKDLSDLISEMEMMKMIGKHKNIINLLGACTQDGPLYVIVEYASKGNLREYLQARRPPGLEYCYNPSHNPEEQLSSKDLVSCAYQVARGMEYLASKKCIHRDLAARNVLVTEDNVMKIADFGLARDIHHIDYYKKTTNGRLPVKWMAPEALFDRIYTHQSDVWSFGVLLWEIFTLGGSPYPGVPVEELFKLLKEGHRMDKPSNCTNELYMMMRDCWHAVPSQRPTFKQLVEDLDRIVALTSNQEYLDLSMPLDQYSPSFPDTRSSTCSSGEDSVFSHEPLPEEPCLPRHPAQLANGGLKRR
Sequence of FGFR4 (P22455 22-802): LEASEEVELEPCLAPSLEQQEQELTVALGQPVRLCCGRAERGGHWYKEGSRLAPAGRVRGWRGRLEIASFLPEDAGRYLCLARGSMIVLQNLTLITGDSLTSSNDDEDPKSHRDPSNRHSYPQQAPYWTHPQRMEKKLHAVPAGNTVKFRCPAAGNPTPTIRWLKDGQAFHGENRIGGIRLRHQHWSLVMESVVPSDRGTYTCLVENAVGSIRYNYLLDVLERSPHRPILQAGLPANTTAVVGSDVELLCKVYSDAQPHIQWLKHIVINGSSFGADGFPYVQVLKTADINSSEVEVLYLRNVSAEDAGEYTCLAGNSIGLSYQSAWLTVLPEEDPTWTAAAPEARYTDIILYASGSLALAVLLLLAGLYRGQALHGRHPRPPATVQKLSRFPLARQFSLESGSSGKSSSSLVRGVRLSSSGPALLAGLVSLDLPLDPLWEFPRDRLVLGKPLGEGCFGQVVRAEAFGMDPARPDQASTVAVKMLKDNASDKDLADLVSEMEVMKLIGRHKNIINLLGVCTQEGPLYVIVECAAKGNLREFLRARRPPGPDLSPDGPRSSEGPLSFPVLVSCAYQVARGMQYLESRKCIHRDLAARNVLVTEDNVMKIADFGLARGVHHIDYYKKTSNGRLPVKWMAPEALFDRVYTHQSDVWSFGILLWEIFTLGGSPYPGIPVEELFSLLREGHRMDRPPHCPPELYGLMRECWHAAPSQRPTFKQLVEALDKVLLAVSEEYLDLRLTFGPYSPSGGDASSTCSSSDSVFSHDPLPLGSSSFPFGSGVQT

Structure (SMILES)	Kd (FGFR4) [M]	Kd (VEGFR2) [M]	Kd (FGFR2) [M]	Kd (FGFR3) [M]	Kd (FGFR1) [M]
COc1cc(OC)c2c(c1)N(c1ccc3ncc(-c4cnn(C)c4)cc3c1)CCN(C)C2 [Compound 2]	> 3.02e-06	> 3.02e-06	> 3.02e-06		
COc1cc(OC)c2c(c1)N(c1ccc3ncc(-c4cn[nH]c4)cc3c1)CCN(C(C)C)C2 [Compound 3]	1.38e-06	> 3.02e-06	8.91e-07		
COc1cc(OC)c2c(c1)N(c1ccc3ncc(-c4cnn(C)c4)nc3n1)CCN(C(C)C)C2 [Compound 7]	> 3.02e-06	2.69e-07	> 1e-06	> 3.02e-06	> 3.02e-06
COc1cc(OC)c2c(c1)N(c1ccc3ncc(-c4cnn(C)c4)cc3n1)CCN(C(C)C)C2 [Compound 9]	1.91e-07	1.05e-06	9.33e-07		
COc1cc(OC)c2c(c1)N(c1ccc3ncn(-c4cnn(C)c4)c(=O)c3c1)CCN(C(C)C)C2 [Compound 11]	> 3.02e-06	> 3.02e-06	> 3.02e-06	> 3.02e-06	> 3.02e-06
COc1cc(OC)c2c(c1F)N(c1ccc3ncn(-c4cnn(C)c4)c(=O)c3c1)CCN(C(C)C)C2 [Compound 12]	> 3.02e-06	> 3.02e-06	1.86e-06		

The next lines start with the values.

Kd (FGFR4) [M]	Kd (VEGFR2) [M]	Kd (FGFR2) [M]	Kd (FGFR3) [M]	Kd (FGFR1) [M]	Structure (SMILES)
2.45e-06	> 3.02e-06	1.86e-06			COc1cc(OC)c2c(c1)N(c1ccc3ncc(-c4cnn(C)c4)cc3c1)CCN(C(C)C)C2 [Compound 1]
> 3.02e-06	> 3.02e-06	> 3.02e-06	> 3.02e-06	> 3.02e-06	COc1cc(O)cc2c1CN(C(C)C)CCN2c1ccc2ncc(-c3cnn(C)c3)cc2c1 [Compound 4]
> 3.02e-06	> 3.02e-06	> 3.02e-06			COc1cc(O)c2c(c1)N(c1ccc3ncc(-c4cnn(C)c4)cc3c1)CCN(C(C)C)C2 [Compound 5]
> 3.02e-06	> 3.02e-06	> 3.02e-06	> 3.02e-06	> 3.02e-06	CC(C)N1CCN(c2ccc3ncc(-c4cnn(C)c4)cc3c2)c2cc(O)cc(O)c2C1 [Compound 6]
